Experimental data taken from patent publication US10487071B2, “Bis-triazole compounds with anti-biofilm and anti-corrosion properties” (Université de Toulon, priority 2015, dated 2019).
Read-outs that look alike come from different tables or passages of the source.

Legend:
[1] = system: marine bacterial strains (TC14, TC8, 4M6, TC5 and TC11); assay: Anti-adhesion test, summary over the strains; assay type: cell-based; settings: for EC50 compared with TBTO/ZINEB: comparison with reference biocides
Description: (§1) Bacterial strains were grown on Väätänen nine-salts solution (VNSS). When the stationary phase was reached, the bacterial suspension was centrifuged. Cells were then diluted in sterile artificial sea water (ASW) and introduced in microtiter plates (sterile black PS; Nunc, Fisher Scientific, France) with the tested compound (at eight concentrations in three replicates) in the presence of three controls: (i) non-specific staining control, (ii) adhesion control, and (iii) positive control. The maximum percentage of solvent (DMSO 2%) used to dilute the tested compound was also tested in triplicate as additional control. After incubation during an optimized adhesion time (moderately 15 h), non-adhered bacteria were eliminated and adhered cells were quantified after SYTO 61 (1 μM) staining. A percentage of inhibition was calculated per well. A sigmoid dose-response curve was obtained by plotting the percentage of inhibition as a function of the log of tested compound concentration, after mean (n=3) and standard deviation (SD) calculation per triplicate for each concentration. EC50 values were then calculated for each compound.
(§2) In examples 64 and 65, the following marine bacterial strains are used.

Paracoccus sp. (4M6) [2] = assay: Anti-adhesion test, strain 4M6; assay type: cell-based; settings: Paracoccus; for activity at 200 µM: 15 h, read-out: % of adhesion at 200 μM, 4M6; for EC50: read-out: EC50 (effective concentration to inhibit 50% of the adhesion), 4M6
Procedure, shortened: (§3)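 Stationary-phase bacteria grown in VNSS, diluted in artificial sea water and incubated about 15 h with compound at eight concentrations in triplicate, DMSO up to 2%. Adhered cells stained with SYTO 61 (1 μM). EC50 from a sigmoid fit of % inhibition against log concentration.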

[3] = system: Pseudoalteromonas ulvae (TC14); assay: Toxicity test, strain TC14; assay type: cell-based
Excerpt: Pseudoalteromonas ulvae (TC14) was isolated in June 2010 in the Military Harbor of Toulon (Mediterranean Sea, France) as described in F. Brian-Jaisson, A. Ortalo-Magné, L. Guentas-Dombrowsky, F. Armougom, Y. Blache, M. Molmeret, Microb. Ecol., 2014, 68, 94-110.

Polaribacter sp. (TC5) [4] = assay: Toxicity test, strain TC5; assay type: cell-based; settings: for CC50: read-out: LC50 (necessary concentration to kill 50% of the bacteria)
Excerpt: (§4) Polaribacter sp. (TC5) was isolated in June 2010 in the Military Harbor of Toulon (Mediterranean Sea, France) as described in F. Brian-Jaisson, A. Ortalo-Magné, L. Guentas-Dombrowsky, F. Armougom, Y. Blache, M. Molmeret, Microb. Ecol., 2014, 68, 94-110.

Shewanella sp. (TC11) [5] = assay: Toxicity test, strain TC11; assay type: cell-based
Excerpt: (§5) Shewanella sp. (TC11) was isolated in June 2010 in the Military Harbor of Toulon (Mediterranean Sea, France) as described in F. Brian-Jaisson, A. Ortalo-Magné, L. Guentas-Dombrowsky, F. Armougom, Y. Blache, M. Molmeret, Microb. Ecol., 2014, 68, 94-110.

[6] = system: marine bacterial strains (TC14, TC8, 4M6, TC5 and TC11); assay: Toxicity test, summary over the strains; assay type: cell-based; settings: comparison with reference biocides
Excerpt: as §2

[7] = system: Pseudoalteromonas lipolytica (TC8); assay: Anti-adhesion test, strain TC8; assay type: cell-based; settings: Pseudoalteromonas lipolytica; for activity at 200 µM: 15 h, read-out: % of adhesion at 200 μM, TC8; for EC50: read-out: EC50 (effective concentration to inhibit 50% of the adhesion), TC8
Procedure, shortened: as §3

[8] = Gravimetry (weight loss), corrosion inhibition; settings: mild steel in 1N HCl
Procedure, shortened: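 Mild steel coupons (2.5×2.0×0.1 cm) immersed in non-de-aerated 1N HCl without or with various inhibitor concentrations, then washed, dried and reweighed; duplicate runs. IE (%) calculated from corrosion rates without (CR^o) and with (CR) inhibitor.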

Paracoccus sp. (4M6) [9] = assay: microbe, parasite or virus in culture; settings: for CC50: Paracoccus, read-out: LC50 (necessary concentration to kill 50% of the bacteria), 4M6; for IS: LC50/EC50 (selectivity index), 4M6: strain 4M6
Excerpt: (§6) The anti-adhesion bioassays and toxicity tests are adapted from those disclosed in M. Camps, J.-F. Briand, L. Guentas-Dombrowsky, G. Culioli, A. Bazire and Y. Blache, Mar. Poll.
(§7) After growth on VNSS, bacterial strains were harvested during the exponential phase. The microtiter plates (sterile transparent PS; Nunc, Fisher Scientific) were filled as described in the Anti-adhesion test method using VNSS instead of ASW to allow bacterial growth. The growth was followed by measuring the turbidity (OD600 nm) every hour during 6 or 7 hours. Then, resazurin (50 μM) was added in all the wells, and fluorescence was measured after 2 h to quantify the percent of bacterial viability. The same methodology used with SYTO 61 was applied to calculate a percent of viability after resazurin staining.

[10] = system: Pseudoalteromonas lipolytica (TC8); assay: microbe, parasite or virus in culture; settings: for CC50: Pseudoalteromonas lipolytica, read-out: LC50 (necessary concentration to kill 50% of the bacteria), TC8; for IS: LC50/EC50 (selectivity index), TC8: strain TC8
Excerpt: as §6, §7

[11] = system: Pseudoalteromonas ulvae (TC14); assay: Anti-adhesion test, strain TC14; assay type: cell-based; settings: Pseudoalteromonas ulvae; for activity at 200 µM: 15 h; for EC50: read-out: EC50 (effective concentration to inhibit 50% of the adhesion)
Procedure, shortened: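 Stationary-phase TC14 cells grown in VNSS, diluted in artificial seawater and incubated with compound at eight concentrations in triplicate (DMSO ≤2%) for about 15 h. Non-adhered bacteria removed and adhered cells quantified by SYTO 61 (1 μM) staining. EC50 derived from sigmoid fit of % inhibition versus log concentration.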

Polaribacter sp. (TC5) [12] = assay: Anti-adhesion test, strain TC5; assay type: cell-based; settings: for activity at 200 µM: 15 h; for EC50: read-out: EC50 (effective concentration to inhibit 50% of the adhesion)
Description: as §1, §4

Shewanella sp. (TC11) [13] = assay: Anti-adhesion test, strain TC11; assay type: cell-based; settings: for activity at 200 µM: 15 h, strain TC11, read-out: % of adhesion at 200 μM, TC11; for EC50: read-out: EC50 (effective concentration to inhibit 50% of the adhesion), strain TC11
Description: as §1, §5

[14] = read-out: inhibition of the adhesion of at least four marine bacterial strains
[15] = read-out: inhibition of the adhesion of at least two marine bacterial strains

Structure (SMILES)	EC50 compared with TBTO/ZINEB [1]	inhibition at 200 µM [1, 14] [%]	inhibition at 200 µM [1, 15] [%]	activity at 200 µM (Paracoccus sp. (4M6) [2]) [%]	EC50 (Paracoccus sp. (4M6) [2]) [µM]	IS: LC50/EC50 (selectivity index), TC14 [3]	LC50 (necessary concentration to kill 50% of the bacteria), TC14 [3] [µM]	IS: LC50/EC50 (selectivity index), TC5 (Polaribacter sp. (TC5) [4])	CC50 (Polaribacter sp. (TC5) [4]) [µM]	IS: LC50/EC50 (selectivity index), TC11 (Shewanella sp. (TC11) [5])	LC50 (necessary concentration to kill 50% of the bacteria), TC11 (Shewanella sp. (TC11) [5]) [µM]	toxicity by LC50 values compared with TBTO/ZINEB [6]	activity at 200 µM [7] [%]	EC50 [7] [µM]	CC50 (Paracoccus sp. (4M6) [9]) [µM]	IS: LC50/EC50 (selectivity index), 4M6 (Paracoccus sp. (4M6) [9])	CC50 [10] [µM]	IS: LC50/EC50 (selectivity index), TC8 [10]	activity at 200 µM [11] [%]	EC50 [11] [µM]	further results
CN(C)CCCOc1c(Br)cc(CCn2cc(-c3ccc(-c4cn(CCc5cc(Br)c(OCCCN(C)C)c(Br)c5)nn4)cc3)nn2)cc1Br [SA34, 3-(4-(2-(4-(4-(1-(4-(3-(dimethylamino)propoxy)-3,5-dibromophenethyl)-1H-1,2,3-triazol-4-yl)phenyl)-1H-1,2,3-triazol-1-yl)ethyl)-2,6-dibromophenoxy)-N,N-dimethylpropan-1-amine]	comparable to that of ZINEB	≥ 85	≥ 65	8.2 ± 3.5	1.5 ± 2.1	10.1	132	20.5	94.3	4.3	115.9	less toxic than ZINEB	10.2 ± 3.1	50.5 ± 10.9	114	75.7	174	3.5	13 ± 7.7	13.1 ± 1	IE % ([8]; 0.1 ppm): 52.40%; IE % ([8]; 0.3 ppm): 70.39%; IE % ([8]; 0.5 ppm): 92.23%; IE % ([8]; 2 ppm): 96.25%; IE % ([8]; 10 ppm): 95.69%; activity at 200 µM (Polaribacter sp. (TC5) [12]): 7.9 ± 7.3%; EC50 (Polaribacter sp. (TC5) [12]): 4.6 ± 6.3 µM; activity at 200 µM (Shewanella sp. (TC11) [13]): 7 ± 3.12%; EC50 (Shewanella sp. (TC11) [13]): 27.2 ± 0.5 µM
CN(C)CCOc1c(Br)cc(CCn2cc(-c3ccc(-c4cn(CCc5cc(Br)c(OCCN(C)C)c(Br)c5)nn4)cc3)nn2)cc1Br [SA33, 2-(4-(2-(4-(4-(1-(4-(2-(dimethylamino)ethoxy)-3,5-dibromophenethyl)-1H-1,2,3-triazol-4-yl)phenyl)-1H-1,2,3-triazol-1-yl)ethyl)-2,6-dibromophenoxy)-N,N-dimethylethanamine]	comparable to that of ZINEB	≥ 85	≥ 65	7.4 ± 8.3	11.3 ± 9.1	12.45	254.1	4.8	92.6	4.2	134.8	less toxic than ZINEB	6.8 ± 4.3	42.5 ± 16.9	126	11.2	199	4.7	6.3 ± 1.3	20.4 ± 1.2	IE % ([8]; 0.1 ppm): 87.08%; IE % ([8]; 0.3 ppm): 95.37%; IE % ([8]; 0.5 ppm): 95.89%; IE % ([8]; 2 ppm): 96.25%; IE % ([8]; 10 ppm): 96.03%; activity at 200 µM (Polaribacter sp. (TC5) [12]): 0.7 ± 0.7%; EC50 (Polaribacter sp. (TC5) [12]): 19.2 ± 2.1 µM; activity at 200 µM (Shewanella sp. (TC11) [13]): 4.4 ± 2.7%; EC50 (Shewanella sp. (TC11) [13]): 32 ± 8.1 µM
Oc1ccc(CCn2cc(-c3ccc(-c4cn(CCc5ccc(O)c(I)c5)nn4)cc3)nn2)cc1I [SA43, 1,4 bis (1-(3-iodo-4-hydroxyphenethyl)-1H-1,2,3-triazol-4-yl) benzene]	comparable to that of ZINEB	≥ 85	≥ 65	13.6 ± 8.9	53.8 ± 50.9	11.4	236.9	5.5	320	80.4	88.4	less toxic than ZINEB	10.5 ± 12	30.3 ± 31.3	352	6.5	270	8.9	6.8 ± 1.2	20.7 ± 5.2	activity at 200 µM (Polaribacter sp. (TC5) [12]): 23.8 ± 0.1%; EC50 (Polaribacter sp. (TC5) [12]): 58 ± 1.61 µM; activity at 200 µM (Shewanella sp. (TC11) [13]): 4.6 ± 0.1%; EC50 (Shewanella sp. (TC11) [13]): 1.1 ± 0.6 µM
